{"source": "patent US20130164384A1", "about": "“METHODS OF TREATING BOWEL DISEASES BY ADMINISTERING A BOWEL CLEANSER AND AN ANTIBIOTIC” (Salix Pharmaceuticals, Ltd., priority 2008, published 2013)", "origin": "cited, not measured here", "details": "cited from earlier work", "note": "Read-outs that look alike come from different tables or passages of the source."}
{"compound": "CC(=O)Oc1ccc(C(c2ccc(OC(C)=O)cc2)c2ccccn2)cc1", "note": "[Bisacodyl]", "values": [{"measurement": "Time to produce a bowel movement", "setting": "enemas", "value": "about 20 minutes"}, {"measurement": "Time to produce a bowel movement", "setting": "suppositories", "value": "about an hour"}]}
